Tests used:
[1] = test system: LTB4-induced neutrophilic influx in the mouse ear; assay: Leukotrien-B4-induced accumulation of neutrophiles in the mouse ear; format: in vivo; details: po, read-out: LTB4-induced neutroph. Accum. p.o. ED50
Description: c) Leukotrien-B4-indicated Accumulation of Neutrophiles in the Mouse Ear
Evaluation of the neutrophilic influx by photometric measurement (mOD/min) of the myeloperoxidase activity (Bradley et al.: J. Invest. Dermatol. 78, 206, 1982) in the skin of the ear. Increase 6 hours after topical treatment of the left ear with LTB4 (250 ng on each side) compared with the right ear (2×5 μl acetone as solvent).
Substance administered by oral route in 1% tylose 300, 30 minutes before the LTB4 stimularion.

LTB4 receptors = target: T1, LTB4 receptors (Homo sapiens, UniProt Q15722); assay: U937 receptor binding test/LTB4; details: 3H-LTB4 (3 nM), vital U937 cells, incubation 2 hours at 0°C; read-out: Receptor binding U937-8 Ki
T1 construct: vital U937 cells (differentiated human monocytary cell line with naturally expressed LTB4 receptors); endogenous in cells; host or cells: U937 cells (differentiated, intact/vital)
T1 sequence (Q15722 whole entry): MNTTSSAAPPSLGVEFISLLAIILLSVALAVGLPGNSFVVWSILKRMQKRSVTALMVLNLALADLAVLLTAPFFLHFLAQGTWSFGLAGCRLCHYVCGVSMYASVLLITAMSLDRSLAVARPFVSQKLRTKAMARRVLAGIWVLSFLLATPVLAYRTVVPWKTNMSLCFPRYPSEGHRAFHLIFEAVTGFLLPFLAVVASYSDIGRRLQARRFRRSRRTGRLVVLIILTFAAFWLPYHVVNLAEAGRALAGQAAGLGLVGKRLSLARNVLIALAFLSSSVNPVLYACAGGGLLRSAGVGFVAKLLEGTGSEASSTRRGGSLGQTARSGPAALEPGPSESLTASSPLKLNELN
Description: a) U937—Receptor Binding Test/LTB4
The binding of ^3H-LTB4 (3 nM) to vital U937 cells (differentiated human monocytary cell line with naturally expressed LTB4 receptors) is inhibited, in dosage dependent manner, by an increasing concentration of the test substance (incubation 2 hours at 0°C.). After the unbound ^3H-LTB4 has been separated off by membrane filtration, the radioactivity of the bound LTB4 receptor/^3H-LTB4 complex is quantified by scintillation measurement. The affinity (inhibition constant Kj) was determined by repeated adaptation of a displacement curve to the measurements (program: “coupled mass equilibria” on Wang computer).

[2] = test system: neutrophilic granulocytes; assay: LTB4-induced aggregation of neutrophilic granulocytes in the guinea-pig (in vitro); format: cell-based; details: Cavia porcellus, 2 min, inhibition 2 minutes after incubation with test substance in polydiol/DMSO, read-out: LTB4-induced neutroph. Aggr. EC50
Description: b) Aggregation of Neutrophilic Granulocytes in the Guinea-pig
Indicated by LTB4 in vitro (increase in light transmission in the aggregometer, recorded in mm; each experiment repeated twice): inhibition 2 minutes after incubation with test substance in polydiol/DMSO.

CCCc1c(OC)cccc1OCCCCOc1ccc(C(=N)N)cc1
ED50 [1]: 0.8 mg/kg
Ki (LTB4 receptors): 12 nM
EC50 [2]: 1900 nM
